# Source: paper PMC7074199, “Phytochemicals of Minthostachys diffusa Epling and Their Health-Promoting Bioactivities” (Foods, 2020)
# Where two headings read alike, the source gives them in different places.
# Key:
# Oncopeltus fasciatus = test system: Oncopeltus fasciatus; set-up: method as in earlier work; conditions: cited from earlier work
# [1] = biological target: T1, acetylcholinesterase (AChE) from Electrophorus electricus (Electrophorus electricus, UniProt O42275); assay: biochemical
# T1 construct: purchased Sigma-Aldrich (Milan, Italy) type VI-s
# T1 sequence (O42275 24-633): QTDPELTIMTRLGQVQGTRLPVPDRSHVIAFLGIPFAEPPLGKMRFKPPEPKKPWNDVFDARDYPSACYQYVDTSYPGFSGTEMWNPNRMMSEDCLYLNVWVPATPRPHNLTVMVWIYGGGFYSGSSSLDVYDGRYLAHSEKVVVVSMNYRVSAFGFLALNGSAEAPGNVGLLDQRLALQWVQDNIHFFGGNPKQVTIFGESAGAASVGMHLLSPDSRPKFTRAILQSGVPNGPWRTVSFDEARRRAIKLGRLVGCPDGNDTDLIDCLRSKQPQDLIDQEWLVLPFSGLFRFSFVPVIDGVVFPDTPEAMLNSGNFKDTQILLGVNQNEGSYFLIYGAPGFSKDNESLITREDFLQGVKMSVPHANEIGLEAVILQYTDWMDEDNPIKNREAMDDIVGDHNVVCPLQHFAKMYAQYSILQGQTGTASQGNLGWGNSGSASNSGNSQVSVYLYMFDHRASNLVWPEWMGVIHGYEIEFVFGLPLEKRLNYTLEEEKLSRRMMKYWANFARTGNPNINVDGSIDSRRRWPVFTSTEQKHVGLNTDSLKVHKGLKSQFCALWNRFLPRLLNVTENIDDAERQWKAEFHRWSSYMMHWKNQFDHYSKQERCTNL
# Source text: (§1) The two prevalent forms of cholinesterase in a healthy brain are acetylcholinesterase (AChE) and butyrylcholinesterase (BChE). Ellman’s reaction to analyse the AChE and BChE inhibition by the samples was used as described before.
# [2] = biological target: T2, butyrylcholinesterase (BChE) from equine serum (Equus caballus, UniProt P81908); assay: biochemical
# T2 construct: butyrylcholinesterase (BChE) from equine serum (lyophilized powder); purchased Sigma-Aldrich (Milan, Italy); host or cells: equine serum
# T2 sequence (P81908 whole entry): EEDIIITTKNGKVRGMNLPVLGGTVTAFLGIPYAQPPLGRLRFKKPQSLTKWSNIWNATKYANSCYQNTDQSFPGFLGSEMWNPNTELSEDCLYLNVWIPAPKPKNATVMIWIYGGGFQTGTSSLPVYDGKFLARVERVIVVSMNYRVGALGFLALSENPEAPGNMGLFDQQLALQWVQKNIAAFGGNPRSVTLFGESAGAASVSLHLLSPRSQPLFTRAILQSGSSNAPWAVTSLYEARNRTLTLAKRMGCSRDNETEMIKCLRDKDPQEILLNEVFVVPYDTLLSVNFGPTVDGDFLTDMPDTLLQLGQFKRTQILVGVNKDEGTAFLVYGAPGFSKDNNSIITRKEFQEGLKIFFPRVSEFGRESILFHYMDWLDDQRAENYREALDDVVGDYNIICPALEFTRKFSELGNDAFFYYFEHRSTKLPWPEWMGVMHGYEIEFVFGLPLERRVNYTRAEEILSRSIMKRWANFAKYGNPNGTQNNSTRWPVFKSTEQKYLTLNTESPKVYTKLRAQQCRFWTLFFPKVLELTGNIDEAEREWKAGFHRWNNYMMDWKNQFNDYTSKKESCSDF
# Source text: as §1
# AChE = test system: AChE; set-up: method as in doi:10.1016/j.foodchem.2010.10.050; conditions: isolated from Micromeria cilicica; cited from earlier work
# BChE = test system: BChE; set-up: method as in doi:10.1016/j.foodchem.2010.10.050; conditions: isolated from Micromeria cilicica; cited from earlier work
# [3] = Nitric oxide radical scavenging assay; conditions: concentration inhibiting 25% of radicals
# Experimental: All M. diffusa samples were tested for their radical scavenging activity by four different in vitro chemical assays targeted against the biological super oxide anion (O2^−) and nitric oxide (NO) radicals, and the synthetic neutral DPPH and cationic ABTS^+ radicals.
# [4] = test system: aged as well as scopolamine-induced amnesic rats; set-up: method as in doi:10.31024/ajpp.2018.4.6.17; conditions: cited from earlier work
# [5] = read-out: AChE IC50 (converted)
compound,measurement,setting,value
"CC(=O)O[C@H]1[C@H]2O[C@@]2(C)CC[C@H]1C(C)C [(−)-(1S,2R,3R,4S)-1,2-epoxy-1-methyl-4-(1-methylethyl)-cyclohex-3-yl acetate]",insecticidal activity,Oncopeltus fasciatus,significant insecticidal activity
C[C@H]1[C@H](C)CC[C@]2(C(=O)O)CC[C@]3(C)C(=CC[C@@H]4[C@@]5(C)CC[C@H](O)C(C)(C)[C@@H]5CC[C@]43C)[C@H]12 [Ursolic acid],IC50,[1]; [5],85.3 ± 5.85 µM
same,IC50,[2]; read-out: BChE IC50,83.5 ± 0.94 µM
same,IC50,AChE,93.8 µM
same,IC50,BChE,41.1 µM
O=C1O[C@H]([C@@H](O)CO)C(O)=C1O [ascorbic acid],NO IC25,[3],4780 ± 90 µg/mL
C=C(C)[C@@H]1CC[C@]2(C(=O)O)CC[C@]3(C)[C@H](CC[C@@H]4[C@@]5(C)CC[C@H](O)C(C)(C)[C@@H]5CC[C@]43C)[C@@H]12 [betulinic acid],IC50,[1]; [5],19.7 µM
same,effect on learning and memory,[4],improves learning and memory
COc1ccc2c3c1O[C@H]1C[C@@H](O)C=C[C@@]31CCN(C)C2 [galantamine],inhibition at 60 µg/mL,[2]; read-out: BChE inhibition,67.3 ± 2.61%
CC1(C)CC[C@]2(C(=O)O)CC[C@]3(C)C(=CC[C@@H]4[C@@]5(C)C[C@@H](O)[C@H](O)C(C)(C)[C@@H]5CC[C@]43C)[C@@H]2C1 [maslinic acid],IC50,[1],46.5 µM
same,IC50,[2],10.6 µM
